Experimental data as given in patent publication US11510928B2, “Use of mirtazapine in the treatment of inflammatory disorders, autoimmune disease and PBC” (UTI Limited Partnership, priority 2017, dated 2022).

How the values were obtained:
[1] = system: hepatic CXCL10/IP-10, CXCL9/MIG, ICAM-1 and VCAM-1 expression; assay: Immunohistochemistry of liver sections after mirtazapine treatment; type: in vivo, mouse
Experimental: Male 8-10 week old C57BL/6 mice (Jackson Labs, Bar Harbor, Me.) were used. All procedures were approved by the University of Calgary Animal Care Committee (protocol numbers AC14-0129 and AC14-0128) and were performed in accordance with the guidelines of the Canadian Council on Animal Care. To delineate the impact of mirtazapine treatment upon liver immune cell numbers and phenotype, and upon cytokine/chemokine networks within the liver, mice were treated with mirtazapine 1-20 mg/kg intraperitoneally^13-15. Mirtazapine was suspended in 1% aqueous solution of Tween 80, whereas the control group received 1% aqueous solution of Tween 80. Blood and liver samples were collected 5 hours post-mirtazapine treatment (or 16 hours post-Con A treatment). The detailed experimental protocols, lists of antibodies and reagents used, flow cytometry gating, and immune cell phenotyping strategies, are described herein. Hepatic CXCL10/IP-10, CXCL9/MIG, ICAM-1 and VCAM-1 expression were determined using immunohistochemistry, as previously described. Briefly, following initial deparaffinization and rehydration of tissue sections, antigen retrieval was performed in lx Citrate buffer, PH 6.0 (Abcam) for IP-10/CXCL9 and MIG/CXCL9, or in 1X EDTA buffer pH 8.0 for ICAM1 and VCAM-1. In all cases slides were incubated in antigen retrieval buffer at 95-100° C. for 20 minutes. […] This was followed by incubation with biotinylated rabbit anti-goat, goat-anti rat or goat anti-rabbit secondary antibodies (at 1:150) for 1 hour at room temperature (Vector Labs). Negative staining controls were performed by omission of primary antibody, or by omission of both primary and secondary antibodies. […] This was followed by incubation with Vectastain Elite ABC kit (Vector Laboratories) for 30 min at room temperature. Color was developed with Nova Red Chromogen (ImmPACT NovaRED Peroxidase Substrate, Vector Lab, Burlingame, Calif.), after which sections were counterstained with hematoxylin (EMD Millipore). Mounted slides were converted to virtual slides with a BX61 VS virtual microscopy system equipped with an XC10 camera and VS ASW software (Olympus) (original magnification ×400). For ICAM-1, VCAM1, CXCL9/Mig, and CXCL10/IP10 expression, all scanned virtual slides of the sections were examined in a blinded fashion, and expression patterns evaluated and described.

hepatic B cells = assay: Hepatic B cell characterization by flow cytometry, with liver/plasma cytokine and chemokine levels (Example 6); type: in vivo, mouse
Experimental: Male C57BL/6 mice (age 8-10 wks) were treated with mirt (20 mg/kg ip) or vehicle and livers removed 3-5 hrs later for B cell isolation and characterization by flow cytometry (FACS). Similarly peripheral blood and splenic B cells numbers were determined by FACS. Liver cytokine and chemokine levels were measured by Luminex®.

[2] = system: antigen-induced arthritis (mBSA); assay: Antigen-induced arthritis (AIA) mouse model; type: in vivo; details: 20 mg/kg, 24 hrs post-antigen challenge
Description: The antigen-induced arthritis (AIA) mouse model is a well-characterized model that is extensively used to provide insights into the pathogenesis of RA. AIA is critically dependent on an early innate immune response (within 24 hrs post-induction) mediated by synovial TM's and neutrophils which drive subsequent adaptive immune responses and chronic joint inflammation. Proinflammatory cytokines (eg. TNFα, IL-17A and IL-1) and chemokines (eg. CXCL1, CXCL2) recruit neutrophils to the joint in this model. AIA is induced by the intradermal (tail base) injection of 500 μg methylated BSA (mBSA; Sigma) in 50 μl saline+complete Freund's adjuvant (CFA; Sigma) on day 0. 14 days later mice receive an antigen challenge with mBSA (10 μg/10 μl saline) injection into the left knee joint. At various time points after antigen challenge knee swelling is assessed using calipers, and the knee cavity exposed and inflammatory response and tissue injury assessed by immune cell analyses (cell phenotyping by FACS, using our published protocols), cytokine/chemokine expression (by Luminex® and qRT-PCR), and scoring of histological joint damage. Assessment of joint innate immune responses will occur at 24 and 48 hrs post-antigen challenge42. […] Hypernociception was measured before and 24 hrs post-antigen challenge using an automatic dynamic plantar algesiometer (Hugo Basile Inc).

## CN1CCN2c3ncccc3Cc3ccccc3C2C1 (stereo not drawn) [Mirtazapine]
[1]; hepatocytes and sinusoidal endothelium, vs vehicle
  Hepatic CXCL10 expression (IHC): strikingly increased
[1]; normal liver, vs vehicle
  Hepatic ICAM-1 expression (IHC): did not notably alter ICAM-1 expression
  Hepatic VCAM-1 expression (IHC): enhanced VCAM-1 staining intensity in sinusoidal endothelium and a marked increase in VCAM-1 expression intensity in sinusoidal immune cells
[1]; vs vehicle treated mice
  Hepatic CXCL9 staining (IHC): increased CXCL9 staining mainly within hepatocytes
Hepatic B cells; 20 mg/kg ip, 3-5 hrs
  B cell CXCR3 expression levels (MFI): 12180±315.9
  Elevation of hepatic CXCL10 levels (Luminex): ~120 fold
  Frequency of VLA-4+ hepatic B cells: 61.9+1.8%
  Hepatic CXCR3+ B cells: 47.5+1.4%
  Hepatic CXCR3hi B cells: 30.7±1.5%
  Hepatic CXCR3lo B cells: did not significantly alter
  Increase in hepatic IFNγ levels (Luminex): ~8 fold
  VLA-4+CXCR3hi B cells: 16.1±1.7%
Hepatic B cells; 20 mg/kg ip, within 3-5 hours
  Decrease in total hepatic B cell (IgM+) numbers: ~48%
Hepatic B cells; 5 hr post-treatment
  % B2 cells of IgM+ B cells in liver: 29.6%+2.3%
Hepatic B cells; 5 hrs post-treatment
  B1a B cells within the liver: 32.4%+1.5%
  Plasma levels of CXCL10 (ELISA): 138.4 ± 24.4 pg/mL
Hepatic B cells; 5 hrs post-treatment, NS
  Hepatic B1b B cells: 23.5%+1.4%
Hepatic B cells; flow cytometry, 3 hrs post-treatment
  CD11b+Ly6Chi monocytes producing CXCL10: 12.2%±3.8%
Hepatic B cells; post-mirt
  Hepatic VCAM-1 expression (immunohistochemistry): clear upregulation
[2]
  AIA-induced hypernociception: attenuates
  Joint total neutrophil recruitment: reduces
  Synovial fluid CXCL1 levels: but not CXCL1
  Synovial fluid IL-1α levels: reduces
  Synovial fluid TNFα levels: reduces
